As usually defined, the EC50 is the concentration at which the effect is half-maximal.

These results are taken from patent US10202349B2, “Asymmetric bis-acridines with antitumour activity and their uses” (POLITECHNIKA GDAŃSKA, priority 2015, dated 2019).

Holding throughout (assay): Cytotoxic activity in vitro, SRB
Holding throughout (format): cell-based, human

For test [1], the system named is DU-145. On the procedure: (§1) Cytotoxic activity tests in-vitro. A measure of the cytotoxic activity of bis-acridines are the EC50 (concentration of studied compounds at which 50% inhibition of proliferation of tumorous is observed) of the evaluated compounds that inhibit the growth of 50% of cells in relation to a control. The cytotoxic activity of the compounds was determined using SRB, recommended by the US National Cancer Institute (USA). As the spectrum of 13 human origin neoplasms in bis-acridine screening studies, we used the following: HT 29 [CRC], HCT 116 [CRC], H 460 [lung cancer], MDA MB 231 [breast cancer], MCF-7 [breast cancer], UM UC3 [bladder cancer], PC 3 [prostate cancer], DU 145 [ prostate cancer], Panc-1 [pancreatic cancer], Mia Pa Ca 2 [pancreatic cancer], BXPC 3 [pancreatic cancer], AsPC1 [pancreatic cancer], Capan-2 [pancreatic cancer]. […] The DU-145 results were substantially a basis for selecting compounds and neoplasms for screening. The next neoplasms most sensitive to the cytotoxic activity of bis-acridines was the CRC HCT-116, as well as breast cancer MBA-MB-231. […] The cytotoxic activity of the remaining bis-acridines is significant or high (EC50 in the range from 1 to 0.04 μM). […] Panc-1, MiaPaCa-2 and Capan-2 are more sensitive, whereas for AsPC-1 and BxPC-3 this activity is at least an order of magnitude smaller.

In test [2] the test system is HT-29. On the procedure: as §1
Test [3] concerns H-460. On the procedure:
as §1

Test [4] concerns HCT-116. On the procedure: as §1
Test [5] concerns MiaPaCa-2. On the procedure:
as §1

The subject of test [6] is PANC-1. On the procedure:
as §1

Take `Cc1ccc([N+](=O)[O-])c2c(NCCNCCNc3ccc(C)c4[nH]c5ccccc5c(=O)c34)c3ccccc3nc12` [C-2016, 9-{N-[(4-methyl-9(10H)-acridono-1-yl)aminoethyl]ethylamino}-4′-methyl-1′-nitroacridine]: the half-maximal effective concentration (EC50) is 599 nM in test [1] and 413 nM in test [2].
With `Cc1ccc([N+](=O)[O-])c2c(NCCCN(C)CCCNc3ccc([N+](=O)[O-])c4[nH]c5ccc(O)cc5c(=O)c34)c3ccccc3nc12` [C-2019, 9-{N-[(7-hydroxy-4-nitro-9(10H)acridono-1-yl)aminopropyl]-N-methylaminopropylamino}-4′-methyl-1′-nitroacridine], the EC50 in test [1] was found to be 73 nM; in test [2] it was 200 nM; in test [3], 46 nM.
Regarding `Cc1ccc([N+](=O)[O-])c2c(NCCCN3CCN(CCCNc4ccc([N+](=O)[O-])c5[nH]c6ccc(O)cc6c(=O)c45)CC3)c3ccccc3nc12` [C-2020], the EC50 in test [1] came out at 61 nM; in test [2], 233 nM; in test [3] it was 47 nM.
For the molecule `Cc1ccc([N+](=O)[O-])c2c(NCCCNCCCNc3ccc([N+](=O)[O-])c4[nH]c5ccc(O)cc5c(=O)c34)c3ccccc3nc12` [C-2021, 9-{N-[(7-hydroxy-4-nitro-9(10H)acridono-1-yl)aminopropyl]-aminopropylamino}-4′-methyl-1′-nitroacridine], the 50% effective concentration (EC50) in test [4] stood at 88 nM; in test [1] it was 78 nM; in test [2], 129 nM; in test [3] it was 73 nM.
Regarding `Cc1ccc([N+](=O)[O-])c2c(NCCCNCCNCCCNc3ccc([N+](=O)[O-])c4[nH]c5ccccc5c(=O)c34)c3ccccc3nc12` [C-2039, 9-[N-(4-nitro-9(10H)acridono-1-yl)-aminopropylaminoethylamino-propylamino]-4′-methyl-1′-nitroacridine], the figures for the EC50 in test [5], in test [6] and in test [1] were 110 nM, 142 nM and 88 nM, respectively.
In the same order, the values of `O=c1c2ccccc2[nH]c2c([N+](=O)[O-])ccc(NCCCNCCNCCCNc3c4ccccc4nc4cccc([N+](=O)[O-])c34)c12` [C-2040, 9-[N-(4-nitro-9(10H)acridono-1-yl)-aminopropylaminoethylamino-propylamino]-1′-nitroacridine] are 46 nM, 60 nM and 55 nM.
The molecule `Cc1ccc([N+](=O)[O-])c2c(NCCCN(C)CCCNc3ccc4nnn5c6ccc(O)cc6c(=O)c3c45)c3ccccc3nc12` [C-2056, 9-{N-5-[(8-hydroxy-6H-[1,2,3]triazolo[4,5,1-de]-acridin-6-on-5-yl)aminopropyl]-N-methylaminopropylamino}-4′-methyl-1′-nitroacridine] came in with a 50% effective concentration (EC50) in test [1] of 38 nM.
The same measure, in the same setting: to `Cc1ccc([N+](=O)[O-])c2c(NCCCN3CCN(CCCNc4ccc5nnn6c7ccc(O)cc7c(=O)c4c56)CC3)c3ccccc3nc12` [C-2057, 1-[3-(8-hydroxy-6H-[1,2,3]triazolo[4,5,1-de]-acridin-6-on-5-yl)aminopropyl]-4-[3′-(4′-methyl-1′-nitroacridin-1-yl)-aminopropyl]piperazine] belongs 34 nM.
The same measure, in the same setting: to `Cc1ccc([N+](=O)[O-])c2c(NCCCN3CCN(CCCNc4ccc5nnn6c7ccccc7c(=O)c4c56)CC3)c3ccccc3nc12` [C-2058] belongs 42 nM.
For the molecule `CN(CCCNc1c2ccccc2nc2cccc([N+](=O)[O-])c12)CCCNc1ccc2nnn3c4ccccc4c(=O)c1c23` [C-2060, 9-{N-5-[(6H-[1,2,3]triazolo[4,5,1-de]-acridin-6-on-5-yl)aminopropyl]-N-methylaminopropylamino}-1′-nitroacridine], the EC50 in test [1] is 150 nM; in test [3], 185 nM.
On to `O=c1c2ccccc2n2nnc3ccc(NCCCNCCCNc4c5ccccc5nc5cccc([N+](=O)[O-])c45)c1c32` [C-2063, 9-{N-5-[(6H-[1,2,3]triazolo[4,5,1-de]-acridin-6-on-5-yl)aminopropyl]-aminopropylamino}-1′-nitroacridine], for which the concentration giving a half-maximal response (EC50) turned out to be 4.6 nM in test [1] and 24 nM in test [3].
